Columns and labels:
[1] = target: T1, hPXR ligand binding domain (LBD) (Homo sapiens, UniProt O75469); assay: LanthaScreen TR-FRET PXR competitive binding assay, hPXR LBD; conditions: read-out: EC50 for ligand displacement in hPXR
T1 construct: purchased Invitrogen
T1 sequence (O75469 146-433 limits assumed): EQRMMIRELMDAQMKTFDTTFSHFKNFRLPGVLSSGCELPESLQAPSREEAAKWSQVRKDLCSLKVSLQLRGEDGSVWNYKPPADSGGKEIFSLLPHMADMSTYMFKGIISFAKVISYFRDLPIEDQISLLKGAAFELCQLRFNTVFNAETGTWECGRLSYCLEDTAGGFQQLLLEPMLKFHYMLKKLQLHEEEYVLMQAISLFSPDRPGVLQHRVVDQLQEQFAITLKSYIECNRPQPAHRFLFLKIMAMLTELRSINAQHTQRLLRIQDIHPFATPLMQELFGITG
Protocol: (§1) A LanthaScreen TR-FRET PXR Competitive Binding Assay was conducted according to the manufacturer's protocol (Invitrogen) as previously published (14). Briefly, serial dilutions of indole 3-propionic acid (diluted in TR-FRET PXR Assay Buffer, Invitrogen) were dispensed into triplicate wells of a black, non-treated 384 well plate (Corning Life Sciences). Subsequently, 5 μl of Fluormone PXR Green was added into each well. Finally, 5 μl of a master mix containing hPXR ligand binding domain (LBD), terbium labeled anti-glutathione S transferase (final concentration 10 nM) and dithiothreitol (final concentration 0.05 mM) was added into each well. For mPXR ligand binding domain, GST tagged mPXR LBD was purified using Glutathione Sepharose 4 Fast Flow beads (GE Health Care) in Poly-Prep Chromatography columns (Bio-Rad). hPXR LBD of the assay kit was replaced with the similar concentrations of mPXR LBD. The content was mixed briefly (10 s) and incubated in dark at room temperature for 1 h. TR-FRET was measured using SpectraMaxR M5 microplate reader (Molecular Devices) with the excitation wavelength of 340 nm and emission wavelengths of 520 and 495 nm. TR-FRET ratio was calculated by dividing the emission signal at 520 nm by emission signal at 495 nm. Data are expressed as percentage TR-FRET ratio. Error bars represent s.e.m of duplicate wells from two separate experiments.

[2] = target: T2, human PXR (hPXR) (Homo sapiens, UniProt O75469); assay: In vitro transcription assay, PXR reporter gene (MRP2 luciferase) with hPXR expression plasmid in 293T cells
T2 sequence (O75469 1-434): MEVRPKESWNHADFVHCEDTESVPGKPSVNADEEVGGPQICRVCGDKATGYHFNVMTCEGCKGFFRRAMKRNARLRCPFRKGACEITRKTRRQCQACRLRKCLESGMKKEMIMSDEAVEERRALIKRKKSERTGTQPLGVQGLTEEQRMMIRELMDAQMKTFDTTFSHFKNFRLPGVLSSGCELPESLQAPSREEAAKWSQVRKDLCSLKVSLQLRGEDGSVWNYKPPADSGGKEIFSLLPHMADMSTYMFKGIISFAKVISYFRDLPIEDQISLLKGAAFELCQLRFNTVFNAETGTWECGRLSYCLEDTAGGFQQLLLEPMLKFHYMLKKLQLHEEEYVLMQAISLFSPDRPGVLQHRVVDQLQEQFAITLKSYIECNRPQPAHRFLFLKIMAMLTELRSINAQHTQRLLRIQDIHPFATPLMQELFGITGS
Protocol: These assays were performed in 293T cells as previously published (33). In brief, transient transfection by lipofectamine (Invitrogen) were carried out in 293T cells with plasmids expressing human PXR (hPXR), mouse PXR (mPXR), GAL4-FXR, GAL4-LXR, GAL4-PPARγ and mouse CAR (mCAR) with respective reporter plasmids (Tk-MRP2-luciferase, Tk-MH100-luciferase, CYP2B10-luciferase) and Renilla. For TLR4 promoter luciferase transcription assay, TLR4 promoter reporter construct (a gift from Dr. Michael Rehli of University of Regensburg, Germany) was transfected along with human PXR, mouse PU.1 expression plasmids and Renilla. […] The cells were harvested in passive lysis buffer (Promega) and luciferase activity was detected using the dualluciferase reporter assay system from Promega in 20 μl of cell lysate using the Turner Biosystems 20/20 n Luminometer. Assays were performed at least two independent times each in triplicates.

[3] = target: T3, mPXR ligand binding domain (Mus musculus, UniProt O54915); assay: LanthaScreen TR-FRET PXR competitive binding assay, mPXR LBD; conditions: read-out: EC50 for ligand displacement in mPXR
T3 construct: made in house
T3 sequence (O54915 143-430 limits assumed): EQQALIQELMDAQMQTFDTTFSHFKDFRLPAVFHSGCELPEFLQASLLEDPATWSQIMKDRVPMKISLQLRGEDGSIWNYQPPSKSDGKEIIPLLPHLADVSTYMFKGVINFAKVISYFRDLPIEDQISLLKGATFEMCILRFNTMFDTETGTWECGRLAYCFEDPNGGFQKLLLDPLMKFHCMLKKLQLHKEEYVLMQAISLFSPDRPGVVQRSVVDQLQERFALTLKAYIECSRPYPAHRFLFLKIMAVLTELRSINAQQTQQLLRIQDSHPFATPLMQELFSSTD
Protocol: as §1

[4] = test system: gut permeability to FITC-dextran; assay: In vivo FITC-dextran gut permeability assay in germ free mice after oral IPA; conditions: germ free (SWGF) mice; oral IPA 20 mg/kg, four consecutive days
Protocol: Age and sex-matched mice were orally administered with 0.6 mg/g body weight of an 80 mg/ml solution of FITC-dextran (FD4, Sigma). 5 h later, retro-orbital blood was collected from each mouse. Serum was prepared by allowing the blood to clot by leaving it undisturbed overnight at 4° C. and then subsequently centrifuged at 3000 rpm for 20 minutes. Dilutions of FITC-dextran in PBS were used as a standard curve. Absorption of 50 μl serum was measured at microplate reader with excitation and emission filters set at 490 and 530 nm, respectively (38).

[5] = target: T4, mouse PXR (mPXR) (Mus musculus, UniProt O54915); assay: In vitro transcription assay, PXR reporter gene (MRP2 luciferase) with mPXR expression plasmid in 293T cells; assay type: cell-based
T4 construct: expressed in transfected cells; host or cells: 293T cells
T4 sequence (O54915 1-431): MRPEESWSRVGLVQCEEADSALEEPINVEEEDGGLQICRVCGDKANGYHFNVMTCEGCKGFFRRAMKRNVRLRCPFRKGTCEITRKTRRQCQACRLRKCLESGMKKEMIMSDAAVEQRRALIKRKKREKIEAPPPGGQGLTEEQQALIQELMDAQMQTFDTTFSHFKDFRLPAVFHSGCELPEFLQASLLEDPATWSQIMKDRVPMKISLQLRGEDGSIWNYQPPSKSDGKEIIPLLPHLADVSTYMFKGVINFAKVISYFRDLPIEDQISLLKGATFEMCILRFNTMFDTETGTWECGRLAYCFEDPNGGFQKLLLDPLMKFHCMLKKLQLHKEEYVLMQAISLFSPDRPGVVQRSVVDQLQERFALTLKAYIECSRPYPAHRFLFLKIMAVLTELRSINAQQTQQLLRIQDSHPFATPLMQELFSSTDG
Protocol: These assays were performed in 293T cells as previously published (33). In brief, transient transfection by lipofectamine (Invitrogen) were carried out in 293T cells with plasmids expressing human PXR (hPXR), mouse PXR (mPXR), GAL4-FXR, GAL4-LXR, GAL4-PPARγ and mouse CAR (mCAR) with respective reporter plasmids (Tk-MRP2-luciferase, Tk-MH100-luciferase, CYP2B10-luciferase) and Renilla. […] The cells were harvested in passive lysis buffer (Promega) and luciferase activity was detected using the dualluciferase reporter assay system from Promega in 20 μl of cell lysate using the Turner Biosystems 20/20 n Luminometer. Assays were performed at least two independent times each in triplicates.

[6] = test system: PXR target gene transcription (Mdr-1); assay: PXR target gene (Mdr-1) qPCR in jejunum apical enterocytes after oral IPA; assay type: in vivo, mice; conditions: oral IPA 20 mg/kg; Mdr-1, jejunum apical enterocytes
Protocol: 2.0 μg of total RNA extracted from pooled apical enterocytes with TRIzolR (Invitrogen), were reverse transcribed with random hexamer primers and SuperScript™ III-RT enzyme (Invitrogen). Quantitative PCR (qPCR) reactions using TaqMan universal PCR master mix and TaqMan probes containing FAM as the 5′ reporter fluorochrome and tetramethylrhodamine (MGB) as the 3′ quencher fluorochrome, were performed in triplicate for each sample and analyzed on the ABI Prism 7900HT system. […] Controls include RT-minus RNA samples. PCR reaction conditions for all assays were set at 50° C. for 2 minutes, 95° C. for 10 minutes, followed by 40 cycles of amplification (95° C. for 15 seconds then 60° C. for 1 minute). Experiments were performed at least two independent times each in triplicates.

O=C(O)CCc1c[nH]c2ccccc12 [IPA, indole-3-propionic acid]
EC50 [1]: 2100 nM | EC50 [2]: 120000 nM | Emax, hPXR transcription assay ([2]; IPA alone, MRP2 luciferase, 293T cells): 6.38 fold over control | hPXR activation in combination with indole ([2]; fixed concentration of indole (1 mM), increasing concentrations of metabolite): significantly activates hPXR | EC50 [3]: 1100 nM | Gut permeability to FITC-dextran [4]: decreased gut permeability to FITC-dextran | EC50 [5]: 550 nM | Emax, mPXR transcription assay [5]: 18.84 fold over control | PXR target gene transcription in vivo [6]: induces PXR target gene transcription in vivo
